Data reported in patent US5214063A, “4-aminobutyric acid compounds, compositions and methods of use for treating disorders related to a dysfunction of GABAB receptors” (Adir et Compagnie, priority 1990, dated 1993).

System: hippocampal preparations (CA3 pyramidal cells)
Assay: Inhibition of excitation activity induced by convulsants (bicucullin) in hippocampal preparations
Assay type: cell-based
Conditions: 10 min; excitation induced by bicucullin (50 μM), compound perfused 10 minutes, adult female rat hippocampal preparations; read-out: inhibiting concentration 50 (IC50)
Procedure: Hippocampal preparations were prepared from the brains of sacrificed adult female rats. Transverse sections were placed in a preservative medium. After 1 hour and 30 minutes' incubation, the isolated preparations were placed under registration, perfused with a saline solution and oxygenated. Spontaneous potentials appear which are associated with CA3 pyramidal cells. Excitation is induced by the addition of bicucullin (50 μM).
The compounds of the invention, at various concentrations, or baclofen are then added.
The baclofen or the compounds of the invention are perfused for periods of 10 minutes. The excitation rate is calculated during the four minutes preceding the perfusion of baclofen or the compounds of the invention and during the last four minutes of the perfusion of the products to be studied.
The inhibition is expressed as percentage excitation in relation to the initial rate, which permits the determination of an inhibiting concentration 50 (IC50). The compounds of the invention have an IC50 of from 5 to 20 μM; baclofen in this test has an IC50 of approximately 50 μM.

## NCC(CC(=O)O)c1ccc(Cl)cc1 (stereo not shown) [baclofen, 4-amino-3-(4-chlorophenyl)butyric acid]
  IC50: ~50 µM
